# From paper PMC10649178, “Exploring the Interactions of Soybean 7S Globulin with Gallic Acid, Chlorogenic Acid and (−)-Epigallocatechin Gallate” (Foods, 2023)
# Marks after values point to notes of the source that are not given here.
# Experiments:
# [1] = biological target: T1, soybean 7S globulin (7S; β-conglycinin) (Glycine max, UniProt P0DO16+P11827+P25974); assay: intrinsic fluorescence quenching, double-logarithmic fit; format: binding; details: 10 mM phosphate pH 7.0, 298 K, 10 μM 7S, 0-12 μM ligand
# T1 construct: gene CG-1; mature trimers of α, α’ and β, 150-180 kDa
# T1 sequence (P11827 63-621): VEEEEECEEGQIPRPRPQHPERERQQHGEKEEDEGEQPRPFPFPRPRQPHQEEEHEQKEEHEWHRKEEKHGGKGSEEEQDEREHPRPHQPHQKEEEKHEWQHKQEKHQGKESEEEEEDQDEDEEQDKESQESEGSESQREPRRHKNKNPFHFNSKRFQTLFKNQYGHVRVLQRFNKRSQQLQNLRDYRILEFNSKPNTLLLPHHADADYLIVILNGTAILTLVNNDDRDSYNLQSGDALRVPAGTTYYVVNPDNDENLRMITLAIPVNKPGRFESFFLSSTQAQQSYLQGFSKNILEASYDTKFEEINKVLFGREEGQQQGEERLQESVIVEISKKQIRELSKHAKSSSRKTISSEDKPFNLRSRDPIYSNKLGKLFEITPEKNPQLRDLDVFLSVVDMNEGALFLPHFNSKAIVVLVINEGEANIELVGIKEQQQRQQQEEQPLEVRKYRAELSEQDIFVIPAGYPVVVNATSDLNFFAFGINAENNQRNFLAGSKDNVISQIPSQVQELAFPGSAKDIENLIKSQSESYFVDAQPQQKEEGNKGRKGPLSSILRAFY
# T1 sequence (P0DO16 63-605): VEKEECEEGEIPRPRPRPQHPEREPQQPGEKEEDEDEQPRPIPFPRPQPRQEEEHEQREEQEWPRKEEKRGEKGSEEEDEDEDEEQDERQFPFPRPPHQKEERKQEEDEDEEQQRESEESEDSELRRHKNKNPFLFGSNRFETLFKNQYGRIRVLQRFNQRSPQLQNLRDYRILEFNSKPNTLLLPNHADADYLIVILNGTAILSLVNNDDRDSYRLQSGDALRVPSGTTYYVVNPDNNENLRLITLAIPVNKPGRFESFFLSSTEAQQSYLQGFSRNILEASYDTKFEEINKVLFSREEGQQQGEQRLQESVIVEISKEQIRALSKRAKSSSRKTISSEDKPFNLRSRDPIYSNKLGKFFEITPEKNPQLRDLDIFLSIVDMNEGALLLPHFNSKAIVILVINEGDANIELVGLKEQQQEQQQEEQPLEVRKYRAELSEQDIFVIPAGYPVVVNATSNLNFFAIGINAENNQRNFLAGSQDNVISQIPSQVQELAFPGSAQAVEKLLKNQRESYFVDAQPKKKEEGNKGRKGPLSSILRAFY
# T1 sequence (P25974 24-439): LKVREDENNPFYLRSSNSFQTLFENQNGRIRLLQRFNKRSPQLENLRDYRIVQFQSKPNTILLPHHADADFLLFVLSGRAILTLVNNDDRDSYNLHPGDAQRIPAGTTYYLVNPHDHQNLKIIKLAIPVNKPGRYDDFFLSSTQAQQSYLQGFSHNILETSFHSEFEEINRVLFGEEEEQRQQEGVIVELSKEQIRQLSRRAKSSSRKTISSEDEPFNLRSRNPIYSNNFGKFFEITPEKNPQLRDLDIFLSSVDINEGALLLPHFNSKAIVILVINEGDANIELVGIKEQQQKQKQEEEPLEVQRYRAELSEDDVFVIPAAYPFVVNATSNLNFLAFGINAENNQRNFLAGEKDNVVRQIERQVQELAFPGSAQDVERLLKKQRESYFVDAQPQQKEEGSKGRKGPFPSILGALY
# Excerpt: intrinsic fluorescence quenching, double-logarithmic fit on soybean 7S globulin (7S; β-conglycinin)
# [2] = biological target: T1, soybean 7S globulin (7S; β-conglycinin); assay: isothermal titration calorimetry, one-site model; format: binding; details: 10 mM phosphate pH 7.0, 25 °C, 5 mM ligand
# Excerpt: isothermal titration calorimetry, one-site model on soybean 7S globulin (7S; β-conglycinin)
smiles,measurement,setting,value
"O=C(O)c1cc(O)c(O)c(O)c1 [GA, gallic acid]",Ka (10^4 L/mol),[1]; n = 1.12,5.10 ± 0.30 (10^4)
same,Kd,"[2]; 10 μM 7S, N = 10.0 sites",720 µM
"O=C(/C=C/c1ccc(O)c(O)c1)O[C@@H]1C[C@](O)(C(=O)O)C[C@@H](O)[C@H]1O [CA, chlorogenic acid]",Ka (10^4 L/mol),[1]; n = 1.42,7.44 ± 0.32 (10^4)
same,Kd,"[2]; 10 μM 7S, N = 7.23 sites",444 µM
"O=C(O[C@@H]1Cc2c(O)cc(O)cc2O[C@@H]1c1cc(O)c(O)c(O)c1)c1cc(O)c(O)c(O)c1 [EGCG, (−)-epigallocatechin gallate]",Ka (10^4 L/mol),[1]; n = 1.25,6.23 ± 0.30 (10^4)
same,Kd,"[2]; 5 μM 7S, N = 1.68 sites",485 µM
